Consider 17 substances from US20110039763A1, “TARGETED ANTIMICROBIAL MOIETIES” (C3 JIAN, INC., priority 2009, published 2011).

For assay [1], the system named is microorganisms. Nature of the assay: Peptide activities: targeting/binding, antimicrobial, growth or phenotype altering (Tables 7, 8). The following applies: peptides having multiple activities. The format is cell-based.
In assay [2] the test system is microorganisms. Kind of assay: Morphology, biofilm and growth disrupting peptides (Table 5). The format is cell-based. Further details: key: A: Peptide aggregates; B: Less hyphal formation; Clumps; Diffuse clumps and small polyps; F: Diffuse growth; H: Thin; I: Growth inhibition; Microcolony formation; Rippled; Small polyps; Thick; W: Halo formation on top, microlonies on bottom. An excerpt:
In certain embodiments peptides that induce alterations in phenotype or other biological activities can also be used as antimicrobial effector moieties.

“PF-543: peptide having multiple activities (NILFGIIGFVVAMTAAVIVTAISIAK; Peptide with targeting and/or antimicrobial activity)”: in assay [1], the Activities entry is listed as “G B”. In addition, the “Organism, effect” value in assay [2] (E. coli) is “E. coli (C)”; in assay [2] (M. luteus) it was “M. luteus (C)”; in assay [2] (MRSA) it was “MRSA (D)”; in assay [2] (S. epidermidis), “S. epidermidis (D)”; in assay [2] (S. mutans), “S. mutans (S)”; in assay [2] (S. pneumoniae), “S. pneumoniae (D)”.
Turning to “PF-544: peptide having multiple activities (FGEKQMRSWWKVHWFHP; Peptide with targeting and/or antimicrobial activity)”, the Activities result in assay [1] is given as “G B”. In addition, the “Organism, effect” value in assay [2] (E. faecalis) is recorded as “E. faecalis (R)”; in assay [2] (MRSA), “MRSA (D)”; in assay [2] (S. epidermidis), “S. epidermidis (D)”; in assay [2] (S. pneumoniae) it was “S. pneumoniae (M)”.
In the case of “PF-548: peptide having multiple activities (ARPIADLIHFNSTTVTASGDVYYGPG; Peptide with targeting and/or antimicrobial activity)”, the Activities entry in assay [1] was “G B”. The “Organism, effect” value in assay [2] (B. subtilis) was “B. subtilis (C)”; in assay [2] (C. jeikeium), “C. jeikeium (R)”; in assay [2] (C. jejuni), “C. jejuni (D)”; in assay [2] (M. luteus), “M. luteus (A)”; in assay [2] (MRSA), “MRSA (M)”; in assay [2] (S. epidermidis) it was “S. epidermidis (M)”. Moreover, the “Organism, effect” value in assay [2] (S. pneumoniae) is listed as “S. pneumoniae (D)”.
Turning to “PF-556: peptide having multiple activities (SLQIRMNTLTAAKASIEAA; Peptide with targeting and/or antimicrobial activity)”, the Activities result in assay [1] was “G B”. The “Organism, effect” value is “B. subtilis (C)” in assay [2] (B. subtilis); “C. jeikeium (D)” in assay [2] (C. jeikeium); “C. jejuni (R)” in assay [2] (C. jejuni); “E. faecalis (A)” in assay [2] (E. faecalis); “M. luteus (A)” in assay [2] (M. luteus); “MRSA (M)” in assay [2] (MRSA). For the same substance, the “Organism, effect” value in assay [2] (S. epidermidis) is given as “S. epidermidis (A)”; in assay [2] (S. pneumoniae), “S. pneumoniae (D)”.
For “PF-562: peptide having multiple activities (TPEQWLERSTVVVTGLLNRK; Peptide with targeting and/or antimicrobial activity)”, the Activities result in assay [1] is reported as “G B”. Further, the “Organism, effect” value in assay [2] (C. jejuni) is “C. jejuni (R)”; in assay [2] (M. luteus), “M. luteus (R)”; in assay [2] (MRSA), “MRSA (M)”; in assay [2] (S. epidermidis), “S. epidermidis (A)”; in assay [2] (S. pneumoniae), “S. pneumoniae (D)”.
“PF-577: peptide having multiple activities (PFETRESFRVPVIGILGGWDYFMHP; Peptide with targeting and/or antimicrobial activity)”: in assay [1], the Activities entry is “G B”. Also, the “Organism, effect” value in assay [2] (C. jejuni) is “C. jejuni (R)”; in assay [2] (E. coli) it was “E. coli (A)”; in assay [2] (E. faecalis), “E. faecalis (A)”; in assay [2] (MRSA) it was “MRSA (M)”; in assay [2] (P. aeruginosa) it was “P. aeruginosa (A)”; in assay [2] (S. epidermidis), “S. epidermidis (A)”. For the same substance, the “Organism, effect” value in assay [2] (S. pneumoniae) is “S. pneumoniae (R)”.
As to “PF-578: peptide having multiple activities (QKANLRIGFTYTSDSNVCNLTFALLGSK; Peptide with targeting and/or antimicrobial activity)”, the Activities entry in assay [1] was “G B”. The “Organism, effect” value in assay [2] (E. coli) is “E. coli (C)”; in assay [2] (M. luteus), “M. luteus (C)”; in assay [2] (MRSA), “MRSA (C)”; in assay [2] (P. mirabilis), “P. mirabilis (C)”; in assay [2] (S. epidermidis), “S. epidermidis (D)”; in assay [2] (S. mutans), “S. mutans (D)”. Besides, in assay [2] (S. pneumoniae), the “Organism, effect” value is on record as “S. pneumoniae (D)”.
Consider “PF-581: peptide having multiple activities (WTARARR; Peptide with targeting and/or antimicrobial activity)”, for which the Activities result in assay [1] was “G B”. Further, the “Organism, effect” value in assay [2] (C. jejuni) is recorded as “C. jejuni (A)”; in assay [2] (E. faecalis), “E. faecalis (A)”; in assay [2] (MRSA) it was “MRSA (A)”; in assay [2] (S. pneumoniae), “S. pneumoniae (A)”.
Regarding “PF-586: peptide having multiple activities (chain 1 FFNQANYFFKEF; chain 2 FFNQANYFFKEF; Peptide with targeting and/or antimicrobial activity)”, the Activities entry in assay [1] is listed as “G B”. Besides, the “Organism, effect” value in assay [2] (C. jejuni) is listed as “C. jejuni (D)”; in assay [2] (E. coli) it was “E. coli (C)”; in assay [2] (E. faecalis) it was “E. faecalis (D)”; in assay [2] (MRSA), “MRSA (D)”; in assay [2] (S. epidermidis) it was “S. epidermidis (C)”; in assay [2] (S. pneumoniae), “S. pneumoniae (D)”.
“PF-592: peptide having multiple activities (chain 1 IMKNYKYFKLFIVKYALF; chain 2 IMKNYKYFKLFIVKYALF; Peptide with targeting and/or antimicrobial activity)”: in assay [1], the Activities entry was “G B”. The “Organism, effect” value is on record as “C. jejuni (S)” in assay [2] (C. jejuni); “E. coli (C)” in assay [2] (E. coli); “E. faecalis (D)” in assay [2] (E. faecalis); “MRSA (D)” in assay [2] (MRSA); “S. epidermidis (M)” in assay [2] (S. epidermidis); “S. pneumoniae (D)” in assay [2] (S. pneumoniae).
“PF-595: peptide having multiple activities (chain 1 LQNKIYELLYIKERSKLCS; chain 2 LQNKIYELLYIKERSKLCS; Peptide with targeting and/or antimicrobial activity)”: in assay [1], the Activities result is reported as “G B”. The “Organism, effect” value in assay [2] (C. jejuni) is on record as “C. jejuni (D)”; in assay [2] (E. coli), “E. coli (C)”; in assay [2] (E. faecalis), “E. faecalis (D)”; in assay [2] (MRSA), “MRSA (D)”; in assay [2] (S. epidermidis), “S. epidermidis (C)”; in assay [2] (S. pneumoniae), “S. pneumoniae (R)”.
In the case of “PF-596: peptide having multiple activities (chain 1 SKMWDKILTILILILELIRELIKL; chain 2 SKMWDKILTILILILELIRELIKL; Peptide with targeting and/or antimicrobial activity)”, the Activities result in assay [1] is “G B”. In addition, the “Organism, effect” value is listed as “C. jejuni (D)” in assay [2] (C. jejuni); “E. coli (C)” in assay [2] (E. coli); “E. faecalis (D)” in assay [2] (E. faecalis); “MRSA (D)” in assay [2] (MRSA); “S. epidermidis (D)” in assay [2] (S. epidermidis); “S. pneumoniae (D)” in assay [2] (S. pneumoniae).
For the substance “PF-605: peptide having multiple activities (chain 1 HYRWNTQWWKY; chain 2 HYRWNTQWWKY; Peptide with targeting and/or antimicrobial activity)”, in assay [1], the Activities result is listed as “G B”. For the same substance, the “Organism, effect” value is “C. albicans (B)” in assay [2] (C. albicans); “C. jejuni (R)” in assay [2] (C. jejuni); “E. coli (C)” in assay [2] (E. coli); “E. faecalis (R)” in assay [2] (E. faecalis); “MRSA (C)” in assay [2] (MRSA); “P. aeruginosa (A)” in assay [2] (P. aeruginosa). Further, the “Organism, effect” value in assay [2] (S. epidermidis) is given as “S. epidermidis (R)”; in assay [2] (S. pneumoniae) it was “S. pneumoniae (D)”.
Turning to “PF-610: peptide having multiple activities (chain 1 VFLKLKTSKIDLASIIFYP; chain 2 VFLKLKTSKIDLASIIFYP; Peptide with targeting and/or antimicrobial activity)”, in assay [1], the Activities entry is “G B”. Moreover, the “Organism, effect” value in assay [2] (C. jejuni) is listed as “C. jejuni (D)”; in assay [2] (E. coli), “E. coli (C)”; in assay [2] (E. faecalis), “E. faecalis (D)”; in assay [2] (MRSA), “MRSA (D)”; in assay [2] (S. epidermidis), “S. epidermidis (C)”; in assay [2] (S. pneumoniae), “S. pneumoniae (D)”.
As to “PF-615: peptide having multiple activities (chain 1 FLNRFIFYIFTVKTKSALIKNLFLD; chain 2 FLNRFIFYIFTVKTKSALIKNLFLD; Peptide with targeting and/or antimicrobial activity)”, the Activities result in assay [1] is recorded as “G B”. For the same substance, the “Organism, effect” value is on record as “C. jejuni (D)” in assay [2] (C. jejuni); “E. coli (C)” in assay [2] (E. coli); “E. faecalis (D)” in assay [2] (E. faecalis); “MRSA (D)” in assay [2] (MRSA); “S. epidermidis (D)” in assay [2] (S. epidermidis); “S. pneumoniae (D)” in assay [2] (S. pneumoniae).
With “PF-619: peptide having multiple activities (chain 1 WSRVPGHSDTGWKVWHRW; chain 2 WSRVPGHSDTGWKVWHRW; Peptide with targeting and/or antimicrobial activity)”, the Activities result in assay [1] was “G B”. The “Organism, effect” value in assay [2] (E. coli) was “E. coli (C)”; in assay [2] (MRSA) it was “MRSA (M)”; in assay [2] (S. epidermidis) it was “S. epidermidis (M)”; in assay [2] (S. pneumoniae), “S. pneumoniae (C)”.
Consider “PF-630: peptide having multiple activities (chain 1 IPATPIIHS; chain 2 IPATPIIHS; Peptide with targeting and/or antimicrobial activity)”, for which the Activities entry in assay [1] is listed as “G B”. The “Organism, effect” value in assay [2] (MRSA) is reported as “MRSA (M)”.
